Source: patent publication US7456197B2, “Pyridinium cationic lipids as gene transfer agents” (The Texas A&M University System, priority 2003, dated 2008)
Entries after “also recorded” stand apart in the source; their conditions may differ.

Columns and labels:
[1] = system: breast carcinoma MCF-7; assay: Luciferase (pGL3) transfection efficiency of lipoplexes, MCF-7; assay type: cell-based; conditions: optimized lipoplexes, Chol 1:1, FIG. 7
From the text: It is well known that specific cell types and cell lines may vary in their ability to be transfected. In addition to the NCI-H23 lung cancer cell line, we therefore tested our optimized formulation of 5AMyr/Chol 1:1 versus DOTAP/Chol 1:1 as reference on four other cell lines from tumors representing cancers of great importance to human health, as well as different tissues of origin: breast carcinomas MCF-7, MDA-Mb231, prostate carcinoma DU-145 and glioma SWB-95 (FIG. 7).
Dioleoylphosphatidylethanolamine (DOPE), cholesterol (CHOL), N-(2,3-dioleoyloxypropyl)-N,N,N-trimethylammonium chloride (DOTAP) were commercial products. The purity of the lipids was checked by thin layer chromatography and also by differential scanning calorimetry (DSC), which was also used for determining the critical temperature Tc. For the preparation of the liposomes a protocol optimized for this type of compounds was adopted as follows. The cationic lipid (with or without helper lipid) was dissolved in chloroform/methanol (2/1, v/v) to reach a final concentration of 1 mM for the charged species. […]
For the luciferase assay, 20 μL of cell lysate was aliquoted in a test tube and assessed directly using a luciferase assay kit from Promega by means of a luminometer.
The protein content was quantified using a bicinchoninic acid (BCA) assay. […]

[2] = system: cancer cell line NCI-H23; assay: WST-1 viability assay of transfected cells; assay type: cell-based, human
Protocol: FIG. 6. Viability assay results for the cancer cell line NCI-H23 transfected with 5AMyr-5EMyr and DOTAP (Cl^−)-based lipoplexes. The other characteristics were the same as in the transfection experiment represented in FIG. 5.
In order to assess the cytotoxicity associated with every anion, a WST-1^28 viability assay was conducted in parallel.

## CCCCCCCCCCCCCC(=O)OCC(COC(=O)CCCCCCCCCCCCC)[n+]1c(C)cc(C)cc1C.F[P-](F)(F)(F)(F)F [Lipid 5AMyr, 1-(1,3-dimyristoyloxypropane-2-yl)-2,4,6-trimethylpyridinium hexafluorophosphate]
[1]
  transfection efficiency (luciferase activity normalized for protein): 206000 RLU/μg of protein
[2]; NCI-H23 transfected with lipoplexes, Chol 1:1, FIG. 6
  cytotoxicity (WST-1 viability): minimum cytotoxicity; also recorded: lower cytotoxic effect
[2]; exposure from one hour to three hours, data not shown
  cytotoxic effect on longer cell exposure to lipoplexes: without any visible cytotoxic effect
